≈ marks a conversion by molar mass, not a printed value. One block for each compound: values may come before it.
Key:
Assay type in all cases: functional
[1] = tested on: Candida albicans; assay: Antifungal activity against Candida albicans ATCC 10231 assessed as inhibition of mycelial growth relative to control
[2] = tested on: Aspergillus fumigatus; assay: Antifungal activity against Aspergillus fumigatus assessed as reduction in fungal growth incubated for 72 hrs by agar well diffusion method
[3] = tested on: Candida albicans; assay: Antifungal activity against Candida albicans MTCC 4748 assessed as inhibition of fungal growth incubated for 24 hrs
[4] = tested on: Candida parapsilosis; assay: Antifungal activity against Candida parapsilosis MTCC 1744 assessed as inhibition of fungal growth incubated for 24 hrs; settings: Lodderomyces parapsilosis
[5] = tested on: Candida albicans; assay: Antifungal activity against Candida albicans MTCC 3017 assessed as inhibition of fungal growth incubated for 24 hrs
[6] = tested on: Pichia kudriavzevii; assay: Antifungal activity against Pichia kudriavzevii MTCC 3020 assessed as inhibition of fungal growth incubated for 24 hrs
[7] = tested on: Candida albicans; assay: Antifungal activity against Candida albicans MTCC 1637 assessed as inhibition of fungal growth incubated for 24 hrs
[8] = tested on: Candida albicans; assay: Antifungal activity against Candida albicans MTCC 227 assessed as inhibition of fungal growth incubated for 24 hrs
[9] = tested on: Nakaseomyces glabratus; assay: Antifungal activity against Candida glabrata MTCC 3019 assessed as inhibition of fungal growth incubated for 24 hrs
[10] = tested on: Candida albicans; assay: Antifungal activity against Candida albicans MTCC 7315 assessed as inhibition of fungal growth incubated for 24 hrs
[11] = tested on: Candida albicans; assay: Antifungal activity against Candida albicans MTCC 3018 assessed as inhibition of fungal growth incubated for 24 hrs
[12] = tested on: Microsporum audouinii; assay: Antifungal activity against Microsporum audouinii
[13] = tested on: Candida albicans; assay: Antifungal activity against Candida albicans
[14] = tested on: Candida albicans; assay: Antifungal activity against Candida albicans assessed as diameter of zone inhibition
[15] = tested on: Aspergillus niger; assay: Antifungal activity against Aspergillus niger assessed as diameter of zone inhibition
[16] = tested on: Candida albicans; assay: Antifungal activity against Candida albicans ATCC 10231 assessed as zone of inhibition incubated for 24 hrs by disc diffusion method
[17] = tested on: Botryosphaeria dothidea; assay: Antifungal activity against Botryosphaeria dothidea assessed as reduction in fungal growth at 50 ug/ml relative to control
[18] = tested on: Botrytis cinerea; assay: Antifungal activity against Botrytis cinerea assessed as reduction in fungal growth at 50 ug/ml relative to control
[19] = tested on: Phomopsis; assay: Antifungal activity against Phomopsis assessed as reduction in fungal growth at 50 ug/ml relative to control
[20] = tested on: Cryptococcus neoformans; assay: Antifungal activity against Cryptococcus neoformans
[21] = tested on: Candida albicans; assay: Antifungal activity against Candida albicans assessed as reduction in fungal growth incubated for 18 hrs by broth microdilution method
[22] = tested on: Candida albicans; assay: Antifungal activity against Candida albicans ATCC 90028 assessed as growth inhibition incubated for 36 hrs by resazurin dye based assay
[23] = tested on: Candida albicans; assay: Antifungal activity against azole-resistant Candida albicans ATCC 18804 assessed as fungal growth inhibition incubated for 24 hrs by CLSI protocol based broth microdilution method
[24] = tested on: Candida albicans; assay: Antifungal activity against Candida albicans assessed as zone of inhibition
[25] = tested on: Aspergillus niger; assay: Antifungal activity against Aspergillus niger assessed as zone of inhibition
[26] = tested on: Candida albicans; assay: Antifungal activity against azole-resistant Candida albicans ATCC 10231 assessed as reduction in fungal growth by XTT assay
[27] = tested on: Candida albicans; assay: Antifungal activity against Candida albicans assessed as zone of inhibition by disc diffusion method
[28] = tested on: Aspergillus flavus; assay: Antifungal activity against Aspergillus flavus assessed as zone of inhibition by disc diffusion method
[29] = tested on: Candida albicans; assay: Antifungal activity against Candida albicans assessed as diameter of inhibition zone
[30] = tested on: Rhizopus microsporus; assay: Antifungal activity against Rhizopus microsporus assessed as diameter of inhibition zone
[31] = tested on: Candida albicans; assay: Antifungal activity against Candida albicans NRRL-Y477 assessed as zone of inhibition by disc diffusion method
[32] = tested on: Talaromyces purpureogenus; assay: Antifungal activity against Talaromyces purpureogenus assessed as zone of inhibition by disc diffusion method
[33] = tested on: Aspergillus niger; assay: Antifungal activity against Aspergillus niger MTCC 282 assessed as reduction in microbial growth after 24 hrs by broth micro-dilution method

Compound: O=C(Nc1ccccc1)c1nnn2c1[nH]c(=O)c1ccccc12
inhibition (INH) [1]: 40%

MIC [2]: 1.95 µg/mL (≈ 7.32 µM)
Compound: Cc1n[nH]c2c(C#N)c(=O)n(-c3ccc(N)cc3)nc12

MIC [3]: 3.9 µg/mL (≈ 8.79 µM)
MIC [4]: 3.9 µg/mL (≈ 8.79 µM)
MIC [5]: 3.9 µg/mL (≈ 8.79 µM)
MIC [6]: 3.9 µg/mL (≈ 8.79 µM)
MIC [7]: 3.9 µg/mL (≈ 8.79 µM)
MIC [8]: 3.9 µg/mL (≈ 8.79 µM)
MIC [9]: 3.9 µg/mL (≈ 8.79 µM)
MIC [10]: 3.9 µg/mL (≈ 8.79 µM)
MIC [11]: 3.9 µg/mL (≈ 8.79 µM)
Compound: Fc1ccc(-c2nnc3c4ccc(C(F)(F)F)nc4nc(-c4ccccc4)n23)c(Cl)c1

MIC [3]: 3.9 µg/mL (≈ 8.99 µM)
MIC [4]: 3.9 µg/mL (≈ 8.99 µM)
MIC [5]: 3.9 µg/mL (≈ 8.99 µM)
MIC [6]: 3.9 µg/mL (≈ 8.99 µM)
MIC [7]: 3.9 µg/mL (≈ 8.99 µM)
MIC [8]: 3.9 µg/mL (≈ 8.99 µM)
MIC [9]: 3.9 µg/mL (≈ 8.99 µM)
MIC [10]: 3.9 µg/mL (≈ 8.99 µM)
MIC [11]: 3.9 µg/mL (≈ 8.99 µM)
Compound: Fc1ccc(-c2nnc3c4ccc(C(F)(F)F)nc4nc(-c4ccco4)n23)c(Cl)c1

MIC [12]: 4 µg/mL (≈ 9.14 µM)
MIC [13]: 0.25 µg/mL (≈ 0.571 µM)
Compound: COc1ccc(C2CC(=Nn3c(=O)cc[nH]c3=O)CC(c3ccc(OC)cc3)S2)cc1 (stereo not drawn)

Compound: Clc1ccc(C(Cn2ccnc2)OCc2csc3c(Cl)cccc23)c(Cl)c1 (stereo not drawn) [SERTACONAZOLE]
inhibition zone (IZ) [14]: 20 mm
inhibition zone (IZ) [15]: 24 mm

Compound: CCc1ccccc1/N=N/c1c(N)nc2c(/N=N/c3ccccc3CC)cnn2c1N
inhibition zone (IZ) [16]: 21 mm

Compound: Cc1nc(Oc2ccc(C(=O)Nc3ccc(OC(F)(F)F)cc3)cc2)cc(C(F)(F)F)n1
inhibition at 50 µg/mL [17]: 93.1%
inhibition at 50 µg/mL [18]: 96.7%
inhibition at 50 µg/mL [19]: 89%

Compound: Clc1ccc(COC(Cn2ccnc2)c2ccc(Cl)cc2Cl)c(Cl)c1 (stereo not drawn) [MICONAZOLE]
MIC [3]: 0.39 µg/mL (≈ 0.937 µM)
MIC [4]: 0.39 µg/mL (≈ 0.937 µM)
MIC [5]: 0.39 µg/mL (≈ 0.937 µM)
MIC [6]: 0.39 µg/mL (≈ 0.937 µM)
MIC [7]: 0.39 µg/mL (≈ 0.937 µM)
MIC [8]: 0.39 µg/mL (≈ 0.937 µM)
MIC [9]: 0.39 µg/mL (≈ 0.937 µM)
MIC [10]: 0.39 µg/mL (≈ 0.937 µM)
MIC [11]: 0.39 µg/mL (≈ 0.937 µM)

Compound: Cc1cc(C)nc(Nc2ccccc2)n1 [PYRIMETHANIL]
inhibition at 50 µg/mL [17]: 84.4%
inhibition at 50 µg/mL [18]: 82.8%
inhibition at 50 µg/mL [19]: 85.1%

MIC [20]: 4 µg/mL (≈ 9.77 µM)
MIC [13]: 0.25 µg/mL (≈ 0.611 µM)
Compound: O=c1cc[nH]c(=O)n1N=C1CC(c2ccc(O)cc2)SC(c2ccc(O)cc2)C1 (stereo not drawn)

MIC [21]: 4 µg/mL (≈ 19.2 µM)
Compound: Cc1cc(=O)n2nc(C(=O)NN)nc2[nH]1

MIC [22]: 6.25 µg/mL (≈ 15.4 µM)
Compound: FC(F)(F)c1nnc2n1CCN(C(=S)Nc1ccc(Br)cc1)C2

Compound: Cc1nc(Oc2ccc(C(=O)Nc3ccc(OC(F)(F)F)c(Cl)c3)cc2)cc(C(F)(F)F)n1
inhibition at 50 µg/mL [17]: 98.5%
inhibition at 50 µg/mL [18]: 98.5%
inhibition at 50 µg/mL [19]: 92%

Compound: O=c1ccc(=O)n(-c2nc(-c3cc4c(ccc5ccccc54)oc3=O)cs2)[nH]1
MIC [23]: 0.9 µg/mL (≈ 2.31 µM)

Compound: CC(=O)N(C(C)=O)N1C(=O)CC(=O)N(c2nnc(-c3cc([N+](=O)[O-])cc([N+](=O)[O-])c3)s2)C1=S
inhibition zone (IZ) [24]: 23 mm
inhibition zone (IZ) [25]: 21 mm

Compound: O=C1N=C(n2[nH]c(=O)ccc2=O)S/C1=N\Nc1ccc(-c2ccc(N/N=C3/SC(n4[nH]c(=O)ccc4=O)=NC3=O)cc2)cc1
MIC [26]: 3.1 µg/mL (≈ 4.93 µM)

Compound: CC(=O)N/C(=C\c1ccc(Cl)cc1)c1nc2c(=O)[nH]c(=O)n(Cc3ccccc3Cl)c2[nH]1
inhibition zone (IZ) [27]: 12 mm
inhibition zone (IZ) [28]: 10 mm

Compound: O=C1CCC(=O)N(CC(=O)n2c3ccccc3c3ccccc32)N1
inhibition zone (IZ) [29]: 18 mm
inhibition zone (IZ) [30]: 14 mm

Compound: CCOC(=O)c1c(C)nc2sc3c(=O)[nH]cnc3c2c1-c1cccs1
inhibition zone (IZ) [31]: 25 mm
inhibition zone (IZ) [32]: 25 mm

Compound: CCc1ccccc1/N=N/c1c(N)nn2c(-c3ccc(Cl)cc3)cc(-c3ccccc3)nc12
inhibition zone (IZ) [16]: 19 mm

MIC [3]: 3.9 µg/mL (≈ 9.15 µM)
MIC [4]: 3.9 µg/mL (≈ 9.15 µM)
MIC [5]: 3.9 µg/mL (≈ 9.15 µM)
MIC [6]: 3.9 µg/mL (≈ 9.15 µM)
MIC [7]: 3.9 µg/mL (≈ 9.15 µM)
MIC [8]: 3.9 µg/mL (≈ 9.15 µM)
MIC [9]: 3.9 µg/mL (≈ 9.15 µM)
MIC [10]: 3.9 µg/mL (≈ 9.15 µM)
MIC [11]: 3.9 µg/mL (≈ 9.15 µM)
Compound: O=[N+]([O-])c1ccc(-c2nnc3c4ccc(C(F)(F)F)nc4nc(-c4ccco4)n23)cc1

MIC [33]: 19 µM
Compound: Clc1ccc(C2CC(c3cnc(Cl)cn3)=Nc3ccccc3S2)c(Cl)c1 (stereo not drawn)

Source: ChEMBL document CHEMBL6103565, “Current strategies in design and synthesis of antifungals hybrid and chimeric diazine derivatives” (Bioorg Med Chem, 2025)
